# Read-outs that look alike come from different tables or passages of the source.
# How the values were obtained:
# [1] = test system: patients with heart failure and reduced ejection fraction; type: in vivo, human; conditions: for Change in KCCQ total symptom score at week 24, least squares mean (SE): scale 0 to 100; for All-cause death, hazard ratio (95% CI) / Cardiovascular death, hazard ratio (95% CI) / Heart failure event, hazard ratio (95% CI) / Heart failure hospitalization, hazard ratio (95% CI) / Primary composite outcome, hazard ratio (95% CI): vs placebo; for Primary composite outcome, hazard ratio (95% CI): overall trial population
# Text: Patient eligibility requirements included age 18-85 years, New York Heart Association functional class (NYHA) II-IV symptoms, and ejection fraction of 35% or less. Participants were currently hospitalized for heart failure (in-patients) or had either an urgent visit to the emergency department or a hospitalization for heart failure (outpatients) within one year prior to randomization. […] Patients were required to receive standard drug and device therapy for heart failure consistent with regional clinical practice guidelines and doses optimized according to investigator judgment.
# Key exclusion criteria for patients included current hemodynamic or clinical instability requiring mechanical or intravenous medication, systolic blood pressure (SBP)<85 mmHg, estimated glomerular filtration rate (eGFR)<20 mL/min/1.73 m^2, recent acute coronary syndrome events or cardiovascular procedures (including planned), and other conditions that would adversely affect participation in the trial.
# All eligible participants were randomized 1:1 to oral administration of either placebo or omecamtiv mecarbil (pharmacokinetic-guided dosing: 25, 37.5 or 50 mg) twice daily. Pre-dose plasma concentrations of omecamtiv mecarbil were measured at weeks 2 and 6 with respective dose adjustments on weeks 4 and 8. The patient and investigator were blinded to the plasma concentrations and dispensed dose. The full schedule of assessments is provided in the protocol available at NEJM.org. Study drug was temporarily withheld if the participant experienced clinical signs or symptoms consistent with acute myocardial infarction or ischemia.
# The study was event-driven and was ended after approximately 1590 cardiovascular deaths. The overall type I error was 0.05 for 2-sided testing across primary and secondary endpoints with control for multiplicity testing. A single interim efficacy analysis was conducted after approximately two-thirds of the targeted number of cardiovascular deaths accrued with a one-sided alpha of 0.0005. Given the negligible impact of this interim on the final alpha, the full 0.05 was used in the final analysis consistent with the Haybittle-Peto approach. […] The mean differences in the KCCQ TSS change from baseline to Week 24 were estimated using a mixed model stratified by randomization setting (inpatient and outpatient) containing baseline TSS value, region, baseline eGFR, scheduled visit, treatment group, and the interaction of treatment group with scheduled visit. A joint omnibus F-test was used to test the treatment effect for the KCCQ TSS. An overall pooled estimate for the KCCQ TSS treatment difference to placebo were conducted using a likelihood based approach. The prespecified safety analyses included: serious adverse events; adverse events associated with discontinuation of study treatment; “adverse events of interest” i.e., ventricular arrhythmias requiring treatment and positively adjudicated major cardiac ischemic events (including myocardial infarction, hospitalization for unstable angina, coronary revascularization). […] All analyses were performed with the use of SAS software, version 9.4 (SAS Institute).
# The cumulative incidences of the primary outcome, heart failure events, death from cardiovascular causes and death from any cause were estimated with the use of the Kaplan-Meier method. Hazard ratios and 95% confidence intervals were estimated with the use of Cox regression models stratified by randomization location and region and treatment with omecamtiv mecarbil or placebo as explanatory variables. Analyses are based upon all participants who underwent randomization.
# BCRP = molecular target: T1, BCRP (Homo sapiens, UniProt Q9UNQ0); test: Transporter substrate assessment; type: in vitro ADME; conditions: result in words
# T1 sequence (Q9UNQ0 1-655): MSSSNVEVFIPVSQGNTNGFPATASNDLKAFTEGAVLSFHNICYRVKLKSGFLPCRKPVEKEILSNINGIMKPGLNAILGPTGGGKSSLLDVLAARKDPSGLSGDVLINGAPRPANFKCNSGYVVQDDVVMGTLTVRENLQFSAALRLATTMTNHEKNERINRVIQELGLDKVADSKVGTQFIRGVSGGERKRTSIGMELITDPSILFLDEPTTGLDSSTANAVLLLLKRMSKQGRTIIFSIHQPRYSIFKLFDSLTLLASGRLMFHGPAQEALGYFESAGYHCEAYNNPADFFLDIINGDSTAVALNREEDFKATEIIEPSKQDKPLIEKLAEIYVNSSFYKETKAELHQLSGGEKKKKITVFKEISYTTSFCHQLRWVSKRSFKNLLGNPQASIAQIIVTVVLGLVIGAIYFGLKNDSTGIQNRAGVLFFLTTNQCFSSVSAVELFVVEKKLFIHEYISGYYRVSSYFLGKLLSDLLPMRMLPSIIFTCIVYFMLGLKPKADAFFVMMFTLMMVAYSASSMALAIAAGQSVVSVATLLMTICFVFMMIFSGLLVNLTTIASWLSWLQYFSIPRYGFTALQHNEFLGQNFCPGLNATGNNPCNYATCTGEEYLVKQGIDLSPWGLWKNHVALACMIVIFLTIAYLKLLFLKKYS
# P-gp = P-gp (Homo sapiens, UniProt P08183); test: In vitro inhibition by OM; type: in vitro ADME; conditions: result in words
# Chain of P-gp (P08183 whole entry): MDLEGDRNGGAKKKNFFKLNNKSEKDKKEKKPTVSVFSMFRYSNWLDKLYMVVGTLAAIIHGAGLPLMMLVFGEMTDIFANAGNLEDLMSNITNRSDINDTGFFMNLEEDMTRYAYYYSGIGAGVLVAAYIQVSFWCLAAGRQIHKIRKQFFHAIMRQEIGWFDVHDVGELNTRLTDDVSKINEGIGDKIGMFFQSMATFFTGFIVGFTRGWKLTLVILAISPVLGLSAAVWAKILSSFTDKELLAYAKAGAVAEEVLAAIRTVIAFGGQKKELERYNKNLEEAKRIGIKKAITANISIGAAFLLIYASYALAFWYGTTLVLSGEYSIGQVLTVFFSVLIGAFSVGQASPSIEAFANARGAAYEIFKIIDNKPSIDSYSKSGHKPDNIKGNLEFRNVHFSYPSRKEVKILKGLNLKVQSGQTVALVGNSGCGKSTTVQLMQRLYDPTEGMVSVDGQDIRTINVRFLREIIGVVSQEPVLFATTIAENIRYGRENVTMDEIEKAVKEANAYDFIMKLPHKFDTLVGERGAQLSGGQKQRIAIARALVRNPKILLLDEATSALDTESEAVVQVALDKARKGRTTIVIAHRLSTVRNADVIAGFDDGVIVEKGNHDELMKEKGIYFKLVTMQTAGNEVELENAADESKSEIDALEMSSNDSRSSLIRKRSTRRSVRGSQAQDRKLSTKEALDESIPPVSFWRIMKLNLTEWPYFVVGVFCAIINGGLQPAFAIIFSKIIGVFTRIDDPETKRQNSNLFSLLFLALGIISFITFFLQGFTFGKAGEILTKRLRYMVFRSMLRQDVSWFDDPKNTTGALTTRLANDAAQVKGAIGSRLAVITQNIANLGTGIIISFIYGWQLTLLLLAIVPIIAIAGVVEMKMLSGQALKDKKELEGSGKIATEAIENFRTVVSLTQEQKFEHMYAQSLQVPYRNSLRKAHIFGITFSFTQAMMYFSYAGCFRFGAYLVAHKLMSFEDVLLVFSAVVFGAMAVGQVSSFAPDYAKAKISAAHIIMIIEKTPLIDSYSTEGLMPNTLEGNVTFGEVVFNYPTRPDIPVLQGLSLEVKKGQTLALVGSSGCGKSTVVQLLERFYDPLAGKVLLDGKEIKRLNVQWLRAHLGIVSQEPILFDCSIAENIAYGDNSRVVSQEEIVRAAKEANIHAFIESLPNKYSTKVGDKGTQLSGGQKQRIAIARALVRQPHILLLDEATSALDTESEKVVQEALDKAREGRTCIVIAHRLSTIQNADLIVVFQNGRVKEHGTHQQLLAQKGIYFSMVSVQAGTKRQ
# CYP3A4 = test: In vitro induction by OM; type: in vitro ADME; conditions: result in words
# Text: OM may be administered with drugs that are substrates of CYP3A4, CYP2C8, P-gp or BCRP.
# [2] = N = 4120, median follow-up 21.8 months
# [3] = component of primary composite, N = 4120
smiles,measurement,setting,value
COC(=O)N1CCN(Cc2cccc(NC(=O)Nc3ccc(C)nc3)c2F)CC1 [omecamtiv mecarbil],"Change in KCCQ total symptom score at week 24, difference vs placebo (95% CI)",[1]; Inpatients,2.5
same,"Change in KCCQ total symptom score at week 24, difference vs placebo (95% CI)","[1]; Inpatients, listed as Omecamtiv Mecarbil","2.5 (0.54, 4.46)"
same,"Change in KCCQ total symptom score at week 24, least squares mean (SE)",[1]; Inpatients,23.7 (0.70)
same,"All-cause death, % of patients",[1]; N = 4120,25.9%
same,"All-cause death, Events/100 patient-yrs",[1]; N = 4120,14.4 Events/100 patient-yrs
same,"All-cause death, no. of patients",[1]; N = 4120,1067 no.
same,"Cardiovascular death, Events/100 patient-yrs",[1]; N = 4120,10.9 Events/100 patient-yrs
same,"Heart failure event (first), % of patients",[1]; N = 4120,28.6%
same,"Heart failure event (first), no. of patients",[1]; N = 4120,1177 no.
same,"Heart failure event, Events/100 patient-yrs",[1]; N = 4120,18.7 Events/100 patient-yrs
same,"Heart failure hospitalization (first), % of patients",[1]; N = 4120,27.7%
same,"Heart failure hospitalization (first), no. of patients",[1]; N = 4120,1142 no.
same,"Heart failure hospitalization, Events/100 patient-yrs",[1]; N = 4120,18.0 Events/100 patient-yrs
same,"Primary composite outcome, Events/100 patient-yrs",[1]; N = 4120,24.2 Events/100 patient-yrs
same,"Primary composite outcome (first heart failure event or cardiovascular death), % of patients",[1]; [2],37.0%
same,"Primary composite outcome (first heart failure event or cardiovascular death), no. of patients",[1]; [2],1523 no.
same,"Change in KCCQ total symptom score at week 24, difference vs placebo (95% CI)",[1]; Outpatients,−0.46
same,"Change in KCCQ total symptom score at week 24, difference vs placebo (95% CI)","[1]; Outpatients, listed as Omecamtiv Mecarbil","−0.5 (−1.40, 0.48)"
same,"Change in KCCQ total symptom score at week 24, least squares mean (SE)",[1]; Outpatients,5.8 (0.34)
same,"Cardiovascular death as first event, % of patients",[1]; [3],8.4%
same,"Cardiovascular death as first event, no. of patients",[1]; [3],346 no.
same,Risk reduction of primary composite outcome compared to placebo,"[1]; overall population, median 22 months",8%
same,"Cardiovascular death, % of patients","[1]; secondary outcome, N = 4120",19.6%
same,"Cardiovascular death, no. of patients","[1]; secondary outcome, N = 4120",808 no.
same,"All-cause death, hazard ratio (95% CI)",[1],1.00
same,"Cardiovascular death, hazard ratio (95% CI)",[1],1.01
same,"Heart failure event, hazard ratio (95% CI)",[1],0.93
same,"Heart failure hospitalization, hazard ratio (95% CI)",[1],0.95
same,"All-cause death, hazard ratio (95% CI)",[1]; listed as Omecamtiv Mecarbil,"1.00 (0.92, 1.09)"
same,"Cardiovascular death, hazard ratio (95% CI)",[1]; listed as Omecamtiv Mecarbil,"1.01 (0.92, 1.11)"
same,"Heart failure event, hazard ratio (95% CI)",[1]; listed as Omecamtiv Mecarbil,"0.93 (0.86, 1.00)"
same,"Heart failure hospitalization, hazard ratio (95% CI)",[1]; listed as Omecamtiv Mecarbil,"0.95 (0.87, 1.03)"
same,"Primary composite outcome, hazard ratio (95% CI)",[1],0.92
same,"Primary composite outcome, hazard ratio (95% CI)",[1]; listed as Omecamtiv Mecarbil,"0.92 (0.86, 0.99)"
same,Substrate of BCRP,BCRP,substrate
same,Inhibition of P-gp,P-gp,inhibitor
same,Induction of CYP3A4,CYP3A4,inducer
